PMC4494889 (Cell reports, 2015)
Residue numbers refer to the chain shown, from its start. Like-named read-outs stand apart in the source and are kept apart here.

Tests used:
RIPK2 = RIPK2 (Homo sapiens, UniProt O43353); experiment: ADP-Glo in vitro kinase assay, recombinant RIPK2; assay type: biochemical
RIPK1 [1] = molecular target: T1, RIPK1 (Homo sapiens, UniProt Q13546); experiment: ADP-Glo in vitro kinase assay, recombinant RIPK1
T1 sequence (Q13546 1-327): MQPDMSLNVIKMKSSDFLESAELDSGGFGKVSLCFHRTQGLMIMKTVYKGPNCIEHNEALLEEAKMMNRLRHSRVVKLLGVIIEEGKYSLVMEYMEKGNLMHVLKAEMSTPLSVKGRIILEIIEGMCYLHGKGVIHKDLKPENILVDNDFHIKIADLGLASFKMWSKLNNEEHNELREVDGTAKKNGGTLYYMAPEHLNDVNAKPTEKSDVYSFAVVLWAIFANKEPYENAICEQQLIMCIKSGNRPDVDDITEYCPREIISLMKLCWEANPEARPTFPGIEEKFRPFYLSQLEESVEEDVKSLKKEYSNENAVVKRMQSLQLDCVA

[2] = test system: FADD-deficient Jurkat cells; experiment: Jurkat cell necroptosis assay; settings: for IC50: read-out: IC50, nM Jurkat cell necroptosis assay (RIPK1/3-dependent)
RIPK3 [3] = molecular target: T2, RIPK3 (Homo sapiens, UniProt Q9Y572); experiment: ADP-Glo in vitro kinase assay, recombinant RIPK3; assay type: biochemical
T2 sequence (Q9Y572 whole entry, species assumed): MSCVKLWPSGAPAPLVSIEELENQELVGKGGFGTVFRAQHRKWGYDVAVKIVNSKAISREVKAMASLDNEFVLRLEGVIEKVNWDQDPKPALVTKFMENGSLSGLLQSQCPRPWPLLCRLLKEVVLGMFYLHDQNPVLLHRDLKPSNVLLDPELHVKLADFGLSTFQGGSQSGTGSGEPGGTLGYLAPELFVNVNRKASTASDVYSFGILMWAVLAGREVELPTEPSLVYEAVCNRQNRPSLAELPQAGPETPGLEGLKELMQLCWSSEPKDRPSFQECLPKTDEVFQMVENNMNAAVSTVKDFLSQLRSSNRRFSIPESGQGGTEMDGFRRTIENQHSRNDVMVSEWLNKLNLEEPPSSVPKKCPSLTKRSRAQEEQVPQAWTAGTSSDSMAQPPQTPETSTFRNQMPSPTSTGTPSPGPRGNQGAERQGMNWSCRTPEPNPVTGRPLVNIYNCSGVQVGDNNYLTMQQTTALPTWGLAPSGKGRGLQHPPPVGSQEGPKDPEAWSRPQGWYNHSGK

MEFs [4] = experiment: TCZ; assay type: cell-based; settings: 50 ng/ml mouse TNFα, 200 ng/ml cycloheximide, 25 μM zVAD.fmk, 18 hr
[5] = molecular target: T3, RIPK1/RIPK3 “necrosome” complex (Mus musculus, UniProt Q60855); experiment: Necrosome complex formation, co-IP assay in TCZ-stimulated MEFs; assay type: cell-based; settings: TCZ 6 hr, RIPK3 immunoprecipitation
T3 sequence (Q60855 1-656): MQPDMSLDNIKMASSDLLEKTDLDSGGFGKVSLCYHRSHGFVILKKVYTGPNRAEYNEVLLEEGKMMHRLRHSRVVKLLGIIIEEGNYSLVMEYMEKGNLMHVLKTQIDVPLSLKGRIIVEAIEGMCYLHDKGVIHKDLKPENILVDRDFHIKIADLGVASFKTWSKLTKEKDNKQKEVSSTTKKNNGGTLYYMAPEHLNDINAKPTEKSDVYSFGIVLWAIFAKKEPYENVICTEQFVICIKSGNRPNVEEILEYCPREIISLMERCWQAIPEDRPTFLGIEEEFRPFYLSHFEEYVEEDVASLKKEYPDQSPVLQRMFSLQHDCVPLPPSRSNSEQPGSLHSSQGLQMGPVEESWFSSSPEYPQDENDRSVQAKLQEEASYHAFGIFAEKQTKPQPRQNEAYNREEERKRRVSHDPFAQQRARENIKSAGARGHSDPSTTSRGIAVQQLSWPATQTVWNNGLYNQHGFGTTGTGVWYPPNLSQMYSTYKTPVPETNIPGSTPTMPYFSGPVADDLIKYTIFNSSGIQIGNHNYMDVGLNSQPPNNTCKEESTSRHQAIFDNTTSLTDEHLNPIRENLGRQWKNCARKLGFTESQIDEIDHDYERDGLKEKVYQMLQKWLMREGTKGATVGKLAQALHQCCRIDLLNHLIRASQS

RIPK1−/− MEFs = experiment: IFNγ-induced RIPK3-dependent cell death; settings: 10 ng/ml IFNγ, 24 hr
MEFs [6] = experiment: poly; assay type: cell-based, mouse; settings: 5 μg/ml poly(I:C), 50 μM zVAD.fmk, 24 hr
MEFs [7] = experiment: RIPK1-dependent apoptosis of MEFs; settings: 10 ng/ml mouse TNFα + 100 nM 5z-7-oxozeaenol, 24 hr
RIPK1 [8] = molecular target: T1, RIPK1; experiment: 32P autophosphorylation assay, recombinant RIPK1; assay type: biochemical; settings: 2 μM kinase
RIPK3 [9] = molecular target: T2, RIPK3; experiment: 32P autophosphorylation assay, recombinant RIPK3; assay type: biochemical; settings: 2 μM kinase
[10] = test system: TNFα toxicity in C57BL6/J mice; experiment: TNF-induced injury in vivo; settings: for protection from TNFα toxicity in vivo: 15 min before 5 μg/mouse mouse TNFα i.v.; for activity with respect to survival and injury markers: 0.4 mg/kg i.p., versus Nec-1
[11] = test system: TNFα mRNA in FADD-deficient Jurkat cells; experiment: RIPK1-dependent TNFα mRNA upregulation, qRT-PCR, Jurkat; assay type: cell-based; settings: 10 ng/ml human TNFα, 8 hr
Abl = Abl (Homo sapiens, UniProt P00519); experiment: ADP-Glo in vitro kinase assay, recombinant Abl; assay type: biochemical; settings: read-out: IC50, nM ADPGlo, Abl; recombinant Abl (1 ng)
Abl, sequence (P00519 whole entry, species assumed): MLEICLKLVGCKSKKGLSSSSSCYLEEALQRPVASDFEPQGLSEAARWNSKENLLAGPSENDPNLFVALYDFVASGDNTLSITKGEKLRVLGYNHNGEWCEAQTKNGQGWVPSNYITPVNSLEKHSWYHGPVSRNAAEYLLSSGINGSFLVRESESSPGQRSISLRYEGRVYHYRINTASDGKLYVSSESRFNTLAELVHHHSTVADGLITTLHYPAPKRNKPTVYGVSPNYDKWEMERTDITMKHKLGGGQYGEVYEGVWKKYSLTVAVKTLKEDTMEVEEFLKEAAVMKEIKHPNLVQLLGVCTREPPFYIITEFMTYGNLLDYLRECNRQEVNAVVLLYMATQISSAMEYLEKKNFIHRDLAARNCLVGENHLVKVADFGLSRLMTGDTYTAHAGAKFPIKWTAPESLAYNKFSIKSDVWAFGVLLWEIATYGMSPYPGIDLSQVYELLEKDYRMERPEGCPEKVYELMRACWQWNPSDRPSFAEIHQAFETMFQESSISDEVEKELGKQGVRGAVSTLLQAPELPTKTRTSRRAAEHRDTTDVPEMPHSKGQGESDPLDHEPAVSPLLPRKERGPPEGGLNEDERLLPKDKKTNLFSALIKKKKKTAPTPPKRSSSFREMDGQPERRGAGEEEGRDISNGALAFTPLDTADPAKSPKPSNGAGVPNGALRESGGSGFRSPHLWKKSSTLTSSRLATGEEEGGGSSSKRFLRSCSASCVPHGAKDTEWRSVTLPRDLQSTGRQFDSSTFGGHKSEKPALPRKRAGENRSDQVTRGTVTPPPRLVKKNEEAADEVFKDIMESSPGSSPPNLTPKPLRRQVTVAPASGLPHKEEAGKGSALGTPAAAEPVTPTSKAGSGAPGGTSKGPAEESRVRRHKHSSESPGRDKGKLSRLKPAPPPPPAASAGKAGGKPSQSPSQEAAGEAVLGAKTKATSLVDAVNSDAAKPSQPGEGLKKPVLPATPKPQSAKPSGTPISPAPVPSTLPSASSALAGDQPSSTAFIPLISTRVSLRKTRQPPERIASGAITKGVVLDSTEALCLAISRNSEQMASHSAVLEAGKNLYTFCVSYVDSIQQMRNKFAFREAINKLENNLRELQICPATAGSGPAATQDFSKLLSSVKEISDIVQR

TNFα mRNA in iBMM cells = experiment: RIPK1-dependent TNFα mRNA upregulation, qRT-PCR, iBMM; assay type: cell-based, mouse; settings: 10 ng/ml LPS and 50 μM zVAD.fmk, 7 hr
RIPK1 [12] = molecular target: T4, RIPK1 (Homo sapiens, UniProt Q13546); experiment: ScanEDGE; assay type: binding; settings: 1 μM
T4 sequence (Q13546 1-671): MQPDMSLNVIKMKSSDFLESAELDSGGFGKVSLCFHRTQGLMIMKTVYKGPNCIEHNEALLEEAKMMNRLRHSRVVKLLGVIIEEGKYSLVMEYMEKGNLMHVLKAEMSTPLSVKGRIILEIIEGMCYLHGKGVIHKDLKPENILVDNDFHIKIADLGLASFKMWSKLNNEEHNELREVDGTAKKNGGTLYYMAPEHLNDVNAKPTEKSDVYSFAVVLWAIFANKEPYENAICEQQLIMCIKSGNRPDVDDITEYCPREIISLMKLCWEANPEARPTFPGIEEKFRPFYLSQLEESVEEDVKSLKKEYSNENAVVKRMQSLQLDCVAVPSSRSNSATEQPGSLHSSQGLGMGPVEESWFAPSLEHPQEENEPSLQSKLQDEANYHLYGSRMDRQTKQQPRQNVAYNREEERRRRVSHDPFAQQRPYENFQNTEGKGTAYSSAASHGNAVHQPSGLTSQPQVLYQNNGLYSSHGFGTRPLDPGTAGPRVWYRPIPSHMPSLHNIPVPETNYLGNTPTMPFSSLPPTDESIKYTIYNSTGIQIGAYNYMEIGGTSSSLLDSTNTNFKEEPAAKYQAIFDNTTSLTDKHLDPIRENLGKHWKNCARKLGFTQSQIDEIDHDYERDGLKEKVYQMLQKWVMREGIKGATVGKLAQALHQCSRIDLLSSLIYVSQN

DYRK1b = DYRK1b (Homo sapiens, UniProt Q9Y463); experiment: ScanEDGE; assay type: binding; settings: 1 μM
DYRK1b, sequence (Q9Y463 whole entry): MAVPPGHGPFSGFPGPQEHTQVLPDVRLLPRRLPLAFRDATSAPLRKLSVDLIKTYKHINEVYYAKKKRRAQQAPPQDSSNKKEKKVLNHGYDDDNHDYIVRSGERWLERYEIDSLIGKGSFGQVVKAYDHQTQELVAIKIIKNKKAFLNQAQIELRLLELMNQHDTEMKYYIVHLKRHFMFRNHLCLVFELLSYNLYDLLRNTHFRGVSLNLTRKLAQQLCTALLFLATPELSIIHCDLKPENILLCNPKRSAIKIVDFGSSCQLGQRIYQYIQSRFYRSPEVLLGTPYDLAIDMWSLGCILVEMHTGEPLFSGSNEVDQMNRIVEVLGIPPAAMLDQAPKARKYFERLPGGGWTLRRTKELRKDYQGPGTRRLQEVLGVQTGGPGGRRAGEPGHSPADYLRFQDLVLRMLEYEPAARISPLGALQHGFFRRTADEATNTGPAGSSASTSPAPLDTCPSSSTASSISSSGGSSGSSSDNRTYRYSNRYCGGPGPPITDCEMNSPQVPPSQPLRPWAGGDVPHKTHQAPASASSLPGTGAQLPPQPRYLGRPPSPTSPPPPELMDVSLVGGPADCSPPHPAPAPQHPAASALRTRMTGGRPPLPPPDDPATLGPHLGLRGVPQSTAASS

[13] = test system: diversity set of 97 kinases (90 wild type kinase and 7 mutants); assay type: binding, human; settings: 1 μM
L157F/M92T RIPK1 = molecular target: T5, L157F/M92T RIPK1 (Homo sapiens, UniProt Q13546, L157F/M92T); experiment: 32P autophosphorylation assay, L157F/M92T RIPK1; assay type: biochemical; settings: FLAG-tagged kinase (a.a. 1–327) from HEK293T cells
T5 sequence (Q13546 1-327 M92T/L157F): T1 sequence (Q13546 1-327) with M92T, L157F

RIPK1 [14] = molecular target: T1, RIPK1; experiment: HTRF assay of RIPK1; assay type: biochemical
[15] = read-out: IC50, nM ADPGlo, RIPK2, recombinant RIPK2 (10 ng)
[16] = read-out: IC50, nM ADPGlo, RIPK1, recombinant RIPK1 (20 ng)
[17] = read-out: IC50, nM ADPGlo, RIPK3, recombinant RIPK3 (20 ng)

RIPK2, sequence (O43353 whole entry, species assumed): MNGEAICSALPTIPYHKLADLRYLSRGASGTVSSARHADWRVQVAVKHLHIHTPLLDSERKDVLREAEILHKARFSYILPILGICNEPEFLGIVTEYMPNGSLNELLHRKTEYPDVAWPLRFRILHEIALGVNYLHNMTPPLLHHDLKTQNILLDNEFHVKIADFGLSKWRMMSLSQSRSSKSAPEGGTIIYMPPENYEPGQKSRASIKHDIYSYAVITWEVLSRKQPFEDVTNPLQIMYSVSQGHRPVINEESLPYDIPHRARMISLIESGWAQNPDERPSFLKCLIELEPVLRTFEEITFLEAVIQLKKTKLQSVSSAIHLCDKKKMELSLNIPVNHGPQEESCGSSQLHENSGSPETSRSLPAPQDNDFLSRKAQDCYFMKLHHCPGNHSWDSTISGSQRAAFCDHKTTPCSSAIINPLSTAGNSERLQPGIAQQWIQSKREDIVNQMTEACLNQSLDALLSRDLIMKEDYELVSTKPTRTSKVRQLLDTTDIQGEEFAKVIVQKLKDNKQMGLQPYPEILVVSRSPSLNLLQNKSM

Compound	IC50 (RIPK2; [15]) [nM]	IC50 ([2]; 10 ng/ml human TNFα, 24 hr) [nM]	IC50 (RIPK3 [3]; [17]) [nM]	inhibition of necrosome complex formation [5]	inhibition of IFNγ-induced cell death (RIPK1−/− MEFs)	inhibition of RIPK1 in 32P autophosphorylation assay (RIPK1 [8])	inhibition of RIPK3 in 32P autophosphorylation assay (RIPK3 [9])	protection from TNFα toxicity in vivo ([10]; 1 mg/kg i.p.)	inhibition of TNFα mRNA upregulation, Jurkat cells [11]	IC50 (Abl) [nM]	inhibition of TNFα mRNA upregulation, immortalized macrophages (TNFα mRNA in iBMM cells)	further results
CN1CCN(Cc2ccc(NC(=O)c3cccc(C#Cc4cnc5cccnn45)c3)cc2C(F)(F)F)CC1 [CS1]	63	219	7.4									IC50 (RIPK1 [1]; [16]): 42 nM
CNC(=O)c1cc(Oc2ccc(NC(=O)Nc3cc(C(C)(C)C)nn3-c3ccc4ncccc4c3)c(F)c2)ccn1 [DCC-2036]												IC50 (RIPK2): 520 nM; IC50 (RIPK1 [1]): 5.7 nM; cellular activity, fold lower than ponatinib ([2]; versus ponatinib): > 10 fold; IC50 (RIPK3 [3]): 18 nM
Cc1cc(-c2cnc(N)c3c(-c4ccc5scnc5c4)csc23)n(C)n1 [GSK-843]				not affected								protection from TCZ-induced cell death (MEFs [4]): efficiently protecting cells
CC(C)S(=O)(=O)c1ccc2nccc(Nc3ccc4scnc4c3)c2c1 [GSK-872]				not affected	blockade of cell death							protection from TCZ-induced cell death (MEFs [4]): efficiently protecting cells; inhibition of poly(I:C)/zVAD.fmk-induced cell death (MEFs [6]): inhibit; protection from RIPK1-dependent, RIPK3-independent apoptosis (MEFs [7]): did not inhibit RIPK1-dependent apoptosis
Cc1ccc(NC(=O)c2ccc(CN3CCN(C)CC3)cc2)cc1Nc1nccc(-c2cccnc2)n1 [Gleevec, Imatinib]					Neither Gleevec nor Nilotininb	neither inhibited	neither inhibited					prevention of necroptosis ([2]; 10 ng/ml human TNFα, 24 hr): nor prevented necroptosis
CN1C(=O)NC(Cc2c[nH]c3c(Cl)cccc23)C1=O (centres unmarked) [Nec-1, 7-Cl-O-Nec-1]	> 10000	210	> 10000	efficiently blocked necrosome assembly		only inhibited RIPK1	only inhibited RIPK1	significant protection from injury	inhibited	> 10000	inhibited	circulating levels of IL-6 ([10]; 1 mg/kg i.p.): reduced; survival of the animals ([10]; 1 mg/kg i.p.): prevented death of the animals; inhibition of poly(I:C)/zVAD.fmk-induced cell death (MEFs [6]): marginal protection
COc1ccc2c(c1)C1=NN(C(C)=O)C(c3ccc(F)cc3)C1CC2 (centres unmarked) [Nec-3]	> 10000	260	> 10000							> 10000		IC50 (RIPK1 [1]; [16]): 840 nM
Cc1cn(-c2cc(NC(=O)c3ccc(C)c(Nc4nccc(-c5cccnc5)n4)c3)cc(C(F)(F)F)c2)cn1 [Nilotininb]					Neither Gleevec nor Nilotininb							
Cc1ccc(CCCCN2C(=O)NC(Cc3c[nH]c4c(Cl)cccc34)C2=O)cc1C#Cc1cnc2cccnn12 (centres unmarked) [PN10]	1400			efficiently inhibited				fully protective	efficiently inhibited	> 10000	efficiently inhibited	inhibition of RIPK1 in ScanEDGE panel (RIPK1 [12]): > 99%; Maximal protection from TCZ-induced cell death (MEFs [4]): ~ 85%; activity with respect to survival and injury markers [10]: significantly higher activity than Nec-1; inhibition of DYRK1b in ScanEDGE panel (DYRK1b): 79%; inhibition of other kinases of the ScanEDGE panel [13]: No other kinase was inhibited >65%
Cc1ccc(C(=O)Nc2ccc(CN3CCN(C)CC3)c(C(F)(F)F)c2)cc1C#Cc1cnc2cccnn12 [Ponatinib, ponatinib]				substantial, but lower activity		inhibition	inhibition	completely prevented toxicity of TNFα	efficiently inhibited		efficiently inhibited	activity with respect to survival and injury markers [10]: significantly higher activity than Nec-1; inhibition of L157F/M92T RIPK1 in 32P autophosphorylation assay (L157F/M92T RIPK1): inhibited; inhibition of RIPK1 in HTRF assay (RIPK1 [14]): inhibition; protection from RIPK1-dependent, RIPK3-independent apoptosis (MEFs [7]): protected
